Data published in patent US20230414609A1, “USES OF ORAI1-SPECIFIC CALCIUM CHANNELS IN TREATMENT OF ORAL CANCER” (New York University, priority 2022, published 2023).
“Also recorded” adds a separate entry of the source.

Tests used:
TRPV1 = target: T1, TRPV1 (Homo sapiens, UniProt Q8NER1); test: Stimulation of TRPV1 in HSC-3 cells, cytosolic Ca2+; format: cell-based; conditions: TRPV1 agonist, in the presence of Ca2+
T1 construct: Stimulation of transient receptor channels TRPM7, TRPA1 and TRPV1 in HSC-3 cells; endogenous in cells; host or cells: HSC-3 (human oral squamous cell carcinoma)
T1 sequence (Q8NER1 whole entry): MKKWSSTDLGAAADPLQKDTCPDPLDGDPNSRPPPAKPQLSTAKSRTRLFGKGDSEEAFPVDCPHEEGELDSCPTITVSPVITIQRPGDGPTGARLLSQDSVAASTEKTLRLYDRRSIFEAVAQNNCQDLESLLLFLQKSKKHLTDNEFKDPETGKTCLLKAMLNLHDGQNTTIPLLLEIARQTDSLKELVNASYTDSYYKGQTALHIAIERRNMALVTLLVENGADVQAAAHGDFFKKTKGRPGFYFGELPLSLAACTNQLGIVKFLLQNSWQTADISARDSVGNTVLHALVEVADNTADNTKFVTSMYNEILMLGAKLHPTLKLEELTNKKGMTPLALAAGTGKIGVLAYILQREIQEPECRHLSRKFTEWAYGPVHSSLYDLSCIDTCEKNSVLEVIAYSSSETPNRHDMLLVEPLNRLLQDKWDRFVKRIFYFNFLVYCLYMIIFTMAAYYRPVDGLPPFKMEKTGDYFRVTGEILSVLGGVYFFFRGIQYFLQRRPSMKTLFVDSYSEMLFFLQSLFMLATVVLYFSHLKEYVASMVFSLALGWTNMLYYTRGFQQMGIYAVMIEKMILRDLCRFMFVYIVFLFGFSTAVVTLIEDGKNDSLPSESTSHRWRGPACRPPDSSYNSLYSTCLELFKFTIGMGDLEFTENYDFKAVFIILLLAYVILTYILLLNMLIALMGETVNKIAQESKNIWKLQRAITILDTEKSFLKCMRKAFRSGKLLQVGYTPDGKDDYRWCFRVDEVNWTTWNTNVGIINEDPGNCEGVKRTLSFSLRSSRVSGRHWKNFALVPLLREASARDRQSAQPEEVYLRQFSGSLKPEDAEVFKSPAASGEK

[1] = test system: MMP1 gene expression in HSC-3 cells; test: qRT-PCR of MMP1 gene expression in HSC-3 cells; format: cell-based, human
Procedure: (D) is a schematic of the Boyden chambers and solutions used to quantify cell invasion. DOK cells overexpressing ORAI1 (O1) and STIM1 (S1) were seeded in the top chamber with 2% FBS. Media in the bottom chamber contained 10% FBS.
The role of ORAI1 in oral cancer progression was further elucidated by examining the expression of oncogenes in oral cancer, such as MMP1^9,27, as a proof of concept. We first verified the expression of MMP1 in HaCaT, DOK and HSC-3 cells by qRT-PCR analysis. All cells expressed MMP1 in the order oral cancer HSC-3 cells>dysplastic DOK cells>HaCaT cells (FIG. 2A). We next stimulated HSC-3 cells using different concentrations of CPA to examine changes in MMP1 gene expression mediated by SOCE activation. […] These findings were further supported by the decrease in the expression of MMP1 seen in HSC-3 cells with ORAI1 knockdown or deletion. Because in many cells SOCE activation targets the phosphorylation of the transcription factor NFAT (nuclear factor of activated T cells) and its downstream effectors ^28, and because a previous study implicated NFAT in regulating stemness in oral cancer cells ^16, we next interrogated if the transcriptional up-regulation of MMP1 was downstream of NFAT. We first verified the expression of NFAT isoforms (NFAT1-4) in HaCaT, DOK and HSC-3 cells by qRT-PCR analysis showing that NFAT4 (coded by NFATc3) was the most abundant transcript.

TRPM7 = target: T2, TRPM7 (Homo sapiens, UniProt Q96QT4); test: Stimulation of TRPM7 in HSC-3 cells, cytosolic Ca2+; format: cell-based; conditions: TRPM7 agonist, in the presence of Ca2+
T2 construct: Stimulation of transient receptor channels TRPM7, TRPA1 and TRPV1 in HSC-3 cells; endogenous in cells; host or cells: HSC-3 (human oral squamous cell carcinoma)
T2 sequence (Q96QT4 whole entry): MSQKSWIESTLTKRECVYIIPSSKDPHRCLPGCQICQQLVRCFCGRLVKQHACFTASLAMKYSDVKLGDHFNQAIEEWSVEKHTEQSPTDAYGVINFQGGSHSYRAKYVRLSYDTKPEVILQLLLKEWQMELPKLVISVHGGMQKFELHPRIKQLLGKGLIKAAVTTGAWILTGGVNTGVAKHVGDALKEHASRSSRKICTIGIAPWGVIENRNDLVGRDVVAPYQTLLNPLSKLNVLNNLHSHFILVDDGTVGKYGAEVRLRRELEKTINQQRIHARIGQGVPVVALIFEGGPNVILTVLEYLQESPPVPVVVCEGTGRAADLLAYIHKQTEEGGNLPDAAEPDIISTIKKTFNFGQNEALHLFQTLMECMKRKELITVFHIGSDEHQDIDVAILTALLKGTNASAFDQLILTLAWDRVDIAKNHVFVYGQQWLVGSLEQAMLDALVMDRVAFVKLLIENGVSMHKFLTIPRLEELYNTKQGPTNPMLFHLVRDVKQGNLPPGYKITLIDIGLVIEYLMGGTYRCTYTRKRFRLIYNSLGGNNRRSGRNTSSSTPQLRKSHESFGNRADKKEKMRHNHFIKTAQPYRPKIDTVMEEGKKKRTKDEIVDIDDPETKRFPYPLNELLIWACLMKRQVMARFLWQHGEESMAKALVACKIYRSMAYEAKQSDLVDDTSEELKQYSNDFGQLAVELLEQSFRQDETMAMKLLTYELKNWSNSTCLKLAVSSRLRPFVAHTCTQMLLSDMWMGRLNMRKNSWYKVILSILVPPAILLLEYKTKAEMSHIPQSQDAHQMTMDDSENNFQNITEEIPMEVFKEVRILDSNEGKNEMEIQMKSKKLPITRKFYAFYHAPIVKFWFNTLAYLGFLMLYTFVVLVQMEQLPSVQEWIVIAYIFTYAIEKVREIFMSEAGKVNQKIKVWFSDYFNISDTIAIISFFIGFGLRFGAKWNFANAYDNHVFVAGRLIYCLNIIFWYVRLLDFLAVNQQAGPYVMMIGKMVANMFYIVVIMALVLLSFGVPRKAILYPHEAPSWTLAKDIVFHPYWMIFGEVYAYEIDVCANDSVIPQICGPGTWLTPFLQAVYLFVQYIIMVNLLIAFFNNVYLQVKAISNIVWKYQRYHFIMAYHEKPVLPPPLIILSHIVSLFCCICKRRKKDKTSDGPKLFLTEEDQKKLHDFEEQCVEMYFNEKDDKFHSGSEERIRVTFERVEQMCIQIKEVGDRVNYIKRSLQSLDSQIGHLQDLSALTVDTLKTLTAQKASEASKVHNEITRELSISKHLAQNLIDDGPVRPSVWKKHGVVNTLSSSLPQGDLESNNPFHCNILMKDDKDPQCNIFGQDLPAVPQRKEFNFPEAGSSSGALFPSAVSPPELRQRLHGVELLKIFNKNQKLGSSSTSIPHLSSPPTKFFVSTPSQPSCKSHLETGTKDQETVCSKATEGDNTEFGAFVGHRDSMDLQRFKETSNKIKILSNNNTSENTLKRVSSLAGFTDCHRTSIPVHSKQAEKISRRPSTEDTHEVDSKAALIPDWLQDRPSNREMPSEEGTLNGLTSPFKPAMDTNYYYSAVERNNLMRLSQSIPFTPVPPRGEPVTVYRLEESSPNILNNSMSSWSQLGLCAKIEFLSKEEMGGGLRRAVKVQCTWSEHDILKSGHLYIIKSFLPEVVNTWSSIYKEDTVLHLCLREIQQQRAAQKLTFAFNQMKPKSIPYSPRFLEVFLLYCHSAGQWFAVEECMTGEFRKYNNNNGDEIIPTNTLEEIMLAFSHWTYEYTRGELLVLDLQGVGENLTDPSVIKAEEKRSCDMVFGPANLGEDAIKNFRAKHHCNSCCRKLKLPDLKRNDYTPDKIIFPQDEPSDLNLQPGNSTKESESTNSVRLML
Text: (§1) To investigate SOCE in oral cancer cells, we first used qRT-PCR analysis to analyze the expression of ORAI1-3 in the human oral squamous cell carcinoma (OSCC) cell lines HSC-3 and SCC-9, in the dysplastic oral keratinocytes DOK cells, and in spontaneously transformed normal keratinocytes HaCaT cells. […] Next, we tested whether these cells had functional SOCE by stimulating them with cyclopiazonic acid (CPA), a reversible blocker of the sarco-endoplasmic reticulum Ca^2+ ATPase (SERCA) pump that passively depletes the ER Ca^2+ stores inducing STIM1/ORAI1 coupling and SOCE activation ^22,23. […] We also examined the contribution of other channels that have been implicated in Ca^2+ influx in various cancer cells.

SOCE in HSC-3 cells = test: SOCE ([Ca2+]cyto) after CPA stimulation in HSC-3 cells; format: cell-based, human; conditions: in the presence of the blocker
Procedure: FIG. 1: (A) Heatmap contrast of average variance stabilizing transformation (VST) of ORAI1, ORAI2 and ORAI3 genes between normal (control: N=3 samples) and tongue cancer patients (N=10 samples). Statistical significance was analyzed using the Benjamini-Hochberg FDR (5%) and fold change of 1.5. Both FDR values and fold change were generated using DESeq2. (B-D) show haematoxylin and eosin (H&E) staining (left) and immunofluorescence staining of ORAI1 (right) in the boxed areas of tongue tissue sections showing normal (B), dysplastic (C) and invasive tumor (D) phenotypes. Nuclear staining by 4′,6-diamidino-2-phenylindole (DAPI) is shown in blue. Scale bar, 200 μm. […] (H) and (J) show qRT-PCR analyses of ORAI1 gene expression by the 2^−ΔΔCT method comparing control (scrambled shRNA) and shORAI1 (ORAI1 KD) HSC-3 cells (H) or CRISPR/Cas9 ORAI1 (ORAI1 KO) (J). (I) and (K) show [Ca^2+]cyto measurements comparing control HSC-3 cells compared to shORAI1 (ORAI1 KD) (I) or compared to CRISPR/Cas9 ORAI1 (ORAI1 KO) (K) (left). Quantification of SOCE corrected for baseline Ca^2+ levels as Δpeak (F−F0) (right). (L) and (M) show cell proliferation measured using MTS comparing control HSC-3 cells compared to shORAI1 (ORAI1 KD) (L) or compared to CRISPR/Cas9 ORAI1 (ORAI1 KO) (M). […]

SOCE in SCC-9 cells = test: SOCE ([Ca2+]cyto) after CPA stimulation in SCC-9 cells; format: cell-based, human; conditions: in the presence of the blocker
Text: as §1

HSC-3 cells [2] = test: Cell proliferation, colorimetric assay MTS; format: cell-based, human
Procedure: FIG. 1: (A) Heatmap contrast of average variance stabilizing transformation (VST) of ORAI1, ORAI2 and ORAI3 genes between normal (control: N=3 samples) and tongue cancer patients (N=10 samples). Statistical significance was analyzed using the Benjamini-Hochberg FDR (5%) and fold change of 1.5. Both FDR values and fold change were generated using DESeq2. (B-D) show haematoxylin and eosin (H&E) staining (left) and immunofluorescence staining of ORAI1 (right) in the boxed areas of tongue tissue sections showing normal (B), dysplastic (C) and invasive tumor (D) phenotypes. Nuclear staining by 4′,6-diamidino-2-phenylindole (DAPI) is shown in blue. Scale bar, 200 μm. […] Quantification of SOCE corrected for baseline Ca^2+ levels as Δpeak (F−F0) (right). (L) and (M) show cell proliferation measured using MTS comparing control HSC-3 cells compared to shORAI1 (ORAI1 KD) (L) or compared to CRISPR/Cas9 ORAI1 (ORAI1 KO) (M).
To address the role of SOCE in key cancer hallmarks such as cell proliferation in oral cancer, we used two independent approaches to eliminate ORAI1 expression in HSC-3 cells. […] To address the effects of ORAI1 in cell proliferation, we analyzed HSC-3 cells in the presence of synta-66 and in which ORAI1 expression had been reduced by shORAI1 or CRISPR/Cas9 editing using the colorimetric assay MTS (FIG. 1, L and M).

HSC-3 cells [3] = test: Bulk RNA-seq of CPA stimulated HSC-3 cells; format: cell-based, human

## COc1cc(CNC(=O)CCCC/C=C/C(C)C)ccc1O [capsaicin]
TRPV1
  increase in cytosolic Ca2+: failed to evoke an increase

## CC(=O)C1=C(O)[C@@H]2[C@H]3c4c[nH]c5cccc(c45)C[C@H]3C(C)(C)N2C1=O [CPA, cyclopiazonic acid]
[1]; HSC-3 cells, CPA stimulation
  time of maximal effect on MMP1 gene expression: 3 h

## Oc1ccc2c3c1O[C@H]1c4oc5ccccc5c4C[C@@]4(O)[C@@H](C2)N(CC2CC2)CC[C@]314 [naltriben]
TRPM7
  increase in cytosolic Ca2+: failed to evoke an increase

## COc1ccc(OC)c(-c2ccc(NC(=O)c3ccncc3F)cc2)c1 [synta-66]
SOCE in HSC-3 cells
  SOCE: significantly reduced; also recorded: abolished
SOCE in SCC-9 cells
  SOCE: significantly reduced
HSC-3 cells [2]
  proliferation compared to control cells: significantly decreased
[1]; HSC-3 cells stimulated with CPA
  effect on the CPA-elicited increase in MMP1 gene expression: attenuated the increase
HSC-3 cells [3]
  mRNA level of pain modulators (VEGF-A, B and C, NGF, TLR2, PTGS2): down-regulated
HSC-3 cells [3]; out of >21 genes in the MMP family, FDR<0.05
  number of MMP genes significantly down-regulated: 8
